Holding throughout (assay): growth of human tumour cells (NCI), 48 h
Experiment [1] concerns HOP-92 NSCLC.
Experiment [2] has as its system RXF 393 renal.
For experiment [3], the system named is SF-268 CNS.
Experiment [4] deals with SF-295 CNS.
The test system of experiment [5] is SK-OV-3 ovarian.
Experiment [6] concerns SR leukemia.

This note sets out measurements from PubChem BioAssay (NCI).

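Five compound concentrations were applied to cells in 96-well plates for 48 hours; endpoints were derived by simple linear interpolation of the resulting dose-response curve. Abbreviation: GI50, concentration required for 50% inhibition of growth. The concentration for full growth arrest is given as TGI.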

On to `CC(=O)O[C@]1(C(C)=O)CC[C@H]2[C@@H]3C=C(C)C4=CC(=O)CC[C@]4(C)[C@H]3CC[C@@]21C`, for which the GI50 was 14800 nM in experiment [1]; 57500 nM in experiment [2]; more than 92.8 µM in experiment [3]; more than 83300 nM in experiment [4]; more than 91.9 µM in experiment [5]; more than 55800 nM in experiment [6]. The TGI in experiment [1], in experiment [2], in experiment [3], in experiment [4], in experiment [5] and in experiment [6] was more than 100 µM in each case.

`Cn1ccnc1C(=O)/C=C/c1ccccc1`: the results for the GI50 in experiment [4], in experiment [5] and in experiment [6] were 11400 nM, 4.55 µM and 1380 nM, respectively. Besides, the results for the TGI in experiment [4], in experiment [5] and in experiment [6] were 29.1 µM, 35.9 µM and 6.05 µM, respectively.

`CN(CC(=O)N(Cc1ccc(C2CCCCC2)cc1)c1ccc(C(=O)O)c(O)c1)S(=O)(=O)c1c(F)c(F)c(F)c(F)c1F`: the GI50 was 1950 nM in experiment [1]; 1890 nM in experiment [2]; 7.19 µM in experiment [3]; 17400 nM in experiment [4]; 16.5 µM in experiment [5]; 1900 nM in experiment [6]. Further, the TGI is 8.91 µM in experiment [1]; 3.76 µM in experiment [2]; 20.9 µM in experiment [3]; 37.2 µM in experiment [4]; 31.1 µM in experiment [5]; 4.28 µM in experiment [6].

As to `CCCCCCCCCc1cccc(N2C(N)=NC(N)=NC2(C)C)c1`, the TGI in experiment [1] was more than 100 µM; in experiment [2], more than 100 µM; in experiment [4], 74.6 µM; in experiment [5] it was more than 33.1 µM.

`CN1CCN(c2ccc3nc(-c4ccc5nc(-c6ccc(OCCC(C)(C)C)cc6)[nH]c5c4)[nH]c3c2)CC1`: the GI50 was 14300 nM in experiment [1]; 6.58 µM in experiment [3]; 2340 nM in experiment [4]; 18 µM in experiment [5]; 2900 nM in experiment [6]. The TGI came out at 33.2 µM in experiment [1]; 25.4 µM in experiment [3]; 6.22 µM in experiment [4]; 36 µM in experiment [5]; 8.05 µM in experiment [6].

Take `CC1(C)[C@@H](O[C@@H]2OC[C@@H](O[C@@H]3O[C@H](CO)[C@@H](O)[C@H](O)[C@H]3O[C@@H]3OC[C@@H](O)[C@H](O)[C@H]3O)[C@H](O)[C@H]2O[C@@H]2O[C@H](CO)[C@@H](O)[C@H](O)[C@H]2O)CC[C@]2(C)[C@H]3CC[C@]45OC[C@@]6(CC[C@](C)(C=O)C[C@H]64)[C@H](O)C[C@@]5(C)[C@]3(C)CC[C@@H]12`: the GI50 is 704 nM in experiment [1]; 892 nM in experiment [2]; 0.963 µM in experiment [3]; 892 nM in experiment [4]; 0.922 µM in experiment [5]; 185 nM in experiment [6]. In addition, the TGI in experiment [1] amounted to 1.54 µM; in experiment [2], 2.07 µM; in experiment [3], 1.99 µM; in experiment [4], 1.64 µM; in experiment [5], 1.67 µM; in experiment [6], 1.92 µM.

With `C=C1CC/C=C(\C)C(=O)C[C@@H]2[C@@H]1CC2(C)C`, the TGI was 6.4 µM in experiment [1]; 4.33 µM in experiment [2]; 52.7 µM in experiment [3]; 33.4 µM in experiment [4]; more than 57.5 µM in experiment [5].

As to `O=C(O)c1cccc(N=Nc2c(S(=O)(=O)O)ccc3c2C(=O)c2ccccc2C3=O)c1O`, the TGI in experiment [1], in experiment [2], in experiment [3], in experiment [4], in experiment [5] and in experiment [6] was more than 100 µM each time.

Take `C[C@@H](CO)[C@@H]1CCC=C2CC[C@]3(C)[C@H](CC[C@@H]4[C@@]5(C)CCCNC(C)(C)[C@@H]5CC[C@]43C)[C@H]21`: the GI50 is 1870 nM in experiment [1]; 2390 nM in experiment [2]; 4.48 µM in experiment [3]; 1660 nM in experiment [4]; 12.8 µM in experiment [5]; 5440 nM in experiment [6]. Also, the TGI in experiment [1] was 8.71 µM; in experiment [2], 6.25 µM; in experiment [3], 19.5 µM; in experiment [4], 3.11 µM; in experiment [5], 30.8 µM; in experiment [6] it was more than 100 µM.

On to `O=C(/C=C/c1cc([N+](=O)[O-])ccc1Cl)c1ccccc1`, for which the GI50 in experiment [2] was 14700 nM; in experiment [3], 16.9 µM; in experiment [4], 15600 nM; in experiment [5], 39 µM; in experiment [6], 3540 nM. The TGI is 28.1 µM in experiment [2]; 43.6 µM in experiment [3]; 49.6 µM in experiment [4]; more than 100 µM in experiment [5]; more than 100 µM in experiment [6].

Turning to `CCC1CCc2nc3sc(C(=O)Nc4cccc(F)c4)c(N)c3cc2C1` (configuration not stated), the GI50 in experiment [1] was more than 100000 nM; in experiment [3], more than 100 µM; in experiment [4], 901 nM; in experiment [5], more than 100 µM; in experiment [6], 379 nM. The TGI in experiment [1], in experiment [3], in experiment [4], in experiment [5] and in experiment [6] was more than 100 µM each time.

Take `CN1c2ccccc2C(C)(C)C12C=Cc1cc(O)ccc1O2` (configuration not stated): the GI50 in experiment [1] is 1810 nM; in experiment [3], 2.76 µM; in experiment [4], 2710 nM; in experiment [5], 3.41 µM. Besides, the TGI in experiment [1] worked out at 5.88 µM; in experiment [3], 10.5 µM; in experiment [4], 12.8 µM; in experiment [5], 8.81 µM.

Consider `Cc1cc(N(CCNc2ccnc3cc(Cl)ccc23)Cc2ccco2)nc(Cl)n1`, for which the GI50 was 1470 nM in experiment [1]; 1270 nM in experiment [2]; 2.16 µM in experiment [3]; 1510 nM in experiment [4]; 1.66 µM in experiment [5]. Also, the TGI in experiment [1] was found to be 2.94 µM; in experiment [2], 2.68 µM; in experiment [3] it was 6.01 µM; in experiment [4], 3 µM; in experiment [5], 3.13 µM.

Take `CC(=Nc1ccccc1)C1=C(O)C(Cc2ccccc2)NC1=O` (configuration not stated): the GI50 was 51.5 nM in experiment [1]; 0.0586 µM in experiment [3]; 23.8 nM in experiment [4]; 0.0537 µM in experiment [5]; 23.1 nM in experiment [6]. For the same compound, the TGI in experiment [1] was more than 100 µM; in experiment [3], more than 76.2 µM; in experiment [4] it was 0.0721 µM; in experiment [5], more than 61.8 µM; in experiment [6] it was more than 30.9 µM.

Regarding `COc1cc2c(cc1C)NC(=O)/C2=C\c1cccc(Oc2ccccc2)c1`, the GI50 in experiment [3] was 13.9 µM; in experiment [4] it was 16800 nM; in experiment [5], 22.3 µM; in experiment [6], 5680 nM. Further, the TGI was 31.5 µM in experiment [3], 31.8 µM in experiment [4], 40.9 µM in experiment [5] and 31.4 µM in experiment [6].

Turning to `COc1cc(Nc2ccnc(NCCCNc3ccnc4cc(Cl)ccc34)n2)cc(OC)c1`, the GI50 was 431 nM in experiment [1]; 1.8 µM in experiment [3]; 1370 nM in experiment [4]; 2.42 µM in experiment [5]; 423 nM in experiment [6]. For the same compound, the TGI stood at 2.69 µM in experiment [1]; 3.88 µM in experiment [3]; 2.78 µM in experiment [4]; 6.08 µM in experiment [5]; 2.08 µM in experiment [6].

Take `COC(=O)C1=C(C)NC(C)=C(C(=O)OC)C1/C=C(Cl)/C=C/c1ccccc1`: the GI50 in experiment [2] was 18400 nM; in experiment [3], 20.9 µM; in experiment [4], 17300 nM; in experiment [5] it was 28.2 µM; in experiment [6] it was 19500 nM. Further, the TGI was 46.6 µM in experiment [2]; 58.8 µM in experiment [3]; 38.6 µM in experiment [4]; more than 100 µM in experiment [5]; 38.5 µM in experiment [6].

As to `COc1cc(C2=C(C#Cc3ccccc3)COC2=O)cc(OC)c1OC`, the GI50 in experiment [1] is 2770 nM; in experiment [2], 1350 nM; in experiment [3] it was 4.59 µM; in experiment [4], 687 nM; in experiment [5], 20.4 µM. For the same compound, the TGI is 10.6 µM in experiment [1], more than 100 µM in experiment [2], more than 100 µM in experiment [3] and more than 100 µM in experiment [5].

Turning to `C=C1CCC2C(C)(C)CCC[C@]2(C)[C@H]1CO` (some centres not stated), the GI50 in experiment [1] is 74900 nM; in experiment [2] it was more than 100000 nM; in experiment [3], more than 100 µM; in experiment [4], more than 100000 nM. Besides, the TGI in experiment [1], in experiment [2], in experiment [3] and in experiment [4] was more than 100 µM each time.

In the case of `Cc1c(COc2cc(OCc3cccc(C#N)c3)c(CN3C[C@H](O)C[C@@H]3C(=O)O)cc2Cl)cccc1-c1ccc2c(c1)OCCO2`, the GI50 in experiment [2] was 16000 nM; in experiment [3] it was 21.1 µM; in experiment [4], 10700 nM; in experiment [5] it was 19.4 µM; in experiment [6], 2650 nM. Besides, the TGI was determined as 29.9 µM in experiment [2]; 42.6 µM in experiment [3]; 22.6 µM in experiment [4]; 37.7 µM in experiment [5]; 8.95 µM in experiment [6].

Turning to `COc1cc(OC)c(/C=C/c2cnc3ccccc3n2)c(OC)c1`, the TGI in experiment [1], in experiment [2], in experiment [3], in experiment [4] and in experiment [5] was more than 10 µM each time.

Take `O=C1c2ccccc2C(=O)c2c1ccc(C1C(=O)c3ccccc3C1=O)c2-c1c(C2C(=O)c3ccccc3C2=O)ccc2c1C(=O)c1ccccc1C2=O`: the TGI in experiment [1], in experiment [2], in experiment [3], in experiment [4] and in experiment [5] was more than 100 µM throughout.

For the compound `COc1ccc2c(c1)C(=O)c1c-2c(Nc2ccc(Cl)cc2)nc2ccccc12`, the GI50 was 11500 nM in experiment [1]; 2060 nM in experiment [2]; more than 100 µM in experiment [3]; 16700 nM in experiment [4]; 14000 nM in experiment [6]. The TGI was 39.2 µM in experiment [1]; 6.35 µM in experiment [2]; more than 100 µM in experiment [3]; 46.6 µM in experiment [4]; 58.2 µM in experiment [6].

With `Cc1cccc2c(=O)c3c(sc12)c(NCCNCCO)nc1ccccc13`, the GI50 is 1170 nM in experiment [1], 1430 nM in experiment [2], 1.54 µM in experiment [3] and 1730 nM in experiment [4]. Moreover, the TGI in experiment [1] came out at 3.05 µM; in experiment [2] it was 2.77 µM; in experiment [3], 3.15 µM; in experiment [4], 3.21 µM.

For `COc1ccc(OC)c(/C=C(/C)[N+](=O)[O-])c1`, the GI50 in experiment [2] is 1720 nM; in experiment [3], 2.12 µM; in experiment [4], 11200 nM; in experiment [5], 6.41 µM; in experiment [6] it was 316 nM. Further, the TGI in experiment [2] was 3.18 µM; in experiment [3], 5.22 µM; in experiment [4] it was 24.8 µM; in experiment [5], 19 µM; in experiment [6] it was more than 100 µM.

With `Nc1nc(-c2ccccc2)nc2c1[n+]([O-])c1ccccc1[n+]2[O-]`, the TGI in experiment [2], in experiment [3], in experiment [4] and in experiment [5] was more than 100 µM in each case.

With `COc1cc2c3c(n(CCCI)c(=O)c2cc1OC)-c1cc2c(cc1C3=O)OCO2`, the GI50 in experiment [1] was more than 100000 nM; in experiment [2] it was 6810 nM; in experiment [3], 1.34 µM; in experiment [4], 776 nM; in experiment [5] it was more than 100 µM. Besides, the TGI in experiment [1], in experiment [2], in experiment [3], in experiment [4] and in experiment [5] was more than 100 µM each time.

`CCNC(=O)c1cc2c(-c3cc(C(C)(C)O)ccc3Oc3c(C)cc(F)cc3C)cn(C)c(=O)c2[nH]1`: the GI50 in experiment [1] is 257 nM; in experiment [2], 1810 nM; in experiment [3], 3.58 µM; in experiment [4], 2190 nM. Also, the TGI in experiment [1] was 10.9 µM; in experiment [2] it was 5.2 µM; in experiment [3] it was 18.6 µM; in experiment [4], 11 µM.
